Structures are written as SMILES.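 All cell lines were grown in 96-well plates and treated with compound for 48 hours. GI50 = concentration required for 50% inhibition of growth. Definition used: TGI = concentration required for complete inhibition of growth.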

Our source for the TGI and GI50 values is PubChem BioAssay (NCI).

Some test systems named below: UACC-62 melanoma; A549 NSCLC; NCI-H226 lung; U251 CNS; EKVX NSCLC; OVCAR-8 ovarian; SNB-75 CNS; NCI-H23 lung; 786-0 renal; SF-539 CNS.
Common to all, as to experiment: NCI anticancer screen, dose series, 48 h

For the compound `O=c1[nH]cnc2c1nnn2C1C=C(CO)C(O)C1O` (stereo not given), the TGI in the test with UACC-62 melanoma, in the test with A549 NSCLC, in the test with NCI-H226 lung, with U251 CNS, in the test on EKVX NSCLC and in the test on OVCAR-8 ovarian was above 100 µM each time. The TGI with SNB-75 CNS, in the test on NCI-H23 lung, in the test on 786-0 renal and in the test on SF-539 CNS was above 100 µM throughout.
Consider `c1ccc(COc2ccc(Nc3ncnc4ccc(-c5ccco5)cc34)cc2)cc1`, for which the GI50 with UACC-62 melanoma was 5.75 µM; in the test on A549 NSCLC, 6.83 µM; with NCI-H226 lung, 5.73 µM; with U251 CNS it was 6.99 µM; in the test with EKVX NSCLC, 1.81 µM; in the test with OVCAR-8 ovarian, 11.3 µM. Further, the GI50 was 6.82 µM in the test with SNB-75 CNS, 5.54 µM in the test on NCI-H23 lung, 4.91 µM in the test on 786-0 renal and 8.83 µM with SF-539 CNS. Moreover, the TGI in the test with UACC-62 melanoma is 14.3 µM; in the test with A549 NSCLC it was above 25 µM; in the test with NCI-H226 lung, above 21.5 µM; with U251 CNS, above 25 µM; in the test with EKVX NSCLC, above 25 µM; with OVCAR-8 ovarian, above 25 µM. The TGI in the test with SNB-75 CNS was above 18.9 µM; in the test with NCI-H23 lung, above 17.9 µM; with 786-0 renal, 12.9 µM; in the test with SF-539 CNS, above 25 µM.
For `C#CCSc1nnnn1-c1ccc(Br)c(C)c1`, the GI50 was 18.3 µM in the test with UACC-62 melanoma; 38 µM in the test on A549 NSCLC; 26.4 µM with NCI-H226 lung; 12 µM in the test with U251 CNS; 4.86 µM in the test on EKVX NSCLC; 20.3 µM in the test with OVCAR-8 ovarian. Also, the GI50 is 25.7 µM with SNB-75 CNS, 21.5 µM in the test on NCI-H23 lung, 54.9 µM in the test on 786-0 renal and 18.1 µM in the test on SF-539 CNS. Besides, the TGI in the test on UACC-62 melanoma is 91.2 µM; in the test on A549 NSCLC it was above 100 µM; in the test with NCI-H226 lung, above 100 µM; in the test with U251 CNS it was above 100 µM; with EKVX NSCLC, 97.3 µM; with OVCAR-8 ovarian it was above 100 µM. In addition, the TGI in the test with SNB-75 CNS was above 100 µM; with NCI-H23 lung, 88.6 µM; in the test on 786-0 renal it was above 100 µM; in the test on SF-539 CNS, 36.5 µM.
Consider `COc1cc(C2c3cc4c(cc3[C@@H](OCCN)[C@H]3COC(=O)C23)OCO4)cc(OC)c1O` (stereo not given in full), for which the TGI with UACC-62 melanoma is 0.579 µM; in the test with A549 NSCLC it was 1.34 µM; in the test on NCI-H226 lung, 0.933 µM; in the test with U251 CNS, 0.401 µM; in the test on EKVX NSCLC it was 2.22 µM; with OVCAR-8 ovarian, 2.61 µM. The TGI was found to be 2.43 µM in the test with SNB-75 CNS, 0.731 µM in the test with NCI-H23 lung, 0.437 µM in the test on 786-0 renal and 0.345 µM with SF-539 CNS.
For the compound `CCOC(=O)/C(=C/c1c(-c2ccccc2)[nH]c2ccccc12)C(=O)c1ccc(Cl)cc1`, the GI50 is 3.27 µM in the test on UACC-62 melanoma; 4.61 µM in the test with A549 NSCLC; 5.6 µM in the test with NCI-H226 lung; 3.85 µM with U251 CNS; 3.73 µM with EKVX NSCLC; 5.75 µM with OVCAR-8 ovarian. Moreover, the GI50 with SNB-75 CNS is 4.87 µM; in the test with NCI-H23 lung it was 3.47 µM; in the test with 786-0 renal it was 3.75 µM; in the test with SF-539 CNS, 4.23 µM. The TGI in the test with UACC-62 melanoma is 37.1 µM; in the test with A549 NSCLC it was above 100 µM; with NCI-H226 lung, above 100 µM; with U251 CNS, above 100 µM; in the test on EKVX NSCLC it was above 100 µM; in the test with OVCAR-8 ovarian, above 100 µM. Also, the TGI in the test on SNB-75 CNS, with NCI-H23 lung, with 786-0 renal and in the test on SF-539 CNS was above 100 µM each time.
Consider `COc1ccccc1NS(=O)(=O)c1cc(C(C)(C)C)ccc1OCCOc1ccc(C(C)(C)C)cc1S(=O)(=O)Nc1ccccc1OC`, for which the TGI in the test with UACC-62 melanoma, with A549 NSCLC, in the test on NCI-H226 lung, in the test with U251 CNS, in the test with EKVX NSCLC and in the test with OVCAR-8 ovarian was above 100 µM throughout. The TGI with SNB-75 CNS, in the test with NCI-H23 lung, in the test with 786-0 renal and in the test on SF-539 CNS was above 100 µM in each case.
As for `COc1cc2nc(-c3ccc(Cl)cc3)cc(OCCCN3CCC(O)CC3)c2cc1OC`, the GI50 in the test on UACC-62 melanoma was 1.9 µM; with A549 NSCLC, 2.2 µM; in the test on NCI-H226 lung, 1.39 µM; with U251 CNS, 2.81 µM; with EKVX NSCLC, 1.33 µM; in the test with OVCAR-8 ovarian, 2 µM. The GI50 in the test with SNB-75 CNS was 1.76 µM; in the test on NCI-H23 lung it was 2.83 µM; in the test on 786-0 renal it was 3.31 µM; with SF-539 CNS, 2.28 µM. Further, the TGI in the test on UACC-62 melanoma worked out at 4.04 µM; with A549 NSCLC, 14.8 µM; with NCI-H226 lung, 3.62 µM; with U251 CNS it was 22.5 µM; with EKVX NSCLC, 12.9 µM; with OVCAR-8 ovarian, 20.7 µM. Besides, the TGI in the test on SNB-75 CNS amounted to 5.43 µM; in the test on NCI-H23 lung it was 15 µM; in the test on 786-0 renal, 14.9 µM; with SF-539 CNS, 6.78 µM.
